Results published in patent US8969554B2, “6-acyl-1,2,4-triazine-3,5-dione derivative and herbicides” (Kumiai Chemical Industry Co., Ltd., priority 2010, dated 2015).

Legend:
Assay type in all cases: in vivo
Design in all cases: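 index 0 to 10 in 10% steps of herbicidal effect with 10 meaning complete death and 0 below 10%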
[1] = test system: Indian millet; test: Herbicidal activity by field foliage treatment (Test example 3); settings: 1000 g effective component per hectare, day 14 after the treatment
Experimental: (§1) [table] Test for Determining Herbicidal Activity by Field Foliage Treatment A 80 cm^2 wide plastic pot was filled with a field soil and seeds of each of Indian millet and A. retroflexus were sowed and then incubated for 2 weeks in a green house. The wettable powder produced with reference to the Formulation example 1 was diluted water, and applied from the air to entire body of the plant as foliage treatment by using a small sprayer in an amount of 1000 liters per hectare so that the effective component is 1000 g per hectare. After that, the plants were cultivated in a greenhouse, and on day 14 after the treatment, evaluation was made by the criteria described in Table 72 for determining the herbicidal effects.

[2] = test system: A. retroflexus; test: as above; settings: 1000 g effective component per hectare, day 14 after the treatment
Experimental: as §1

[3] = test system: Monochoria vaginalis; test: Herbicidal activity by paddy field soil treatment (Test Example 1); settings: 1000 g of effective component per hectare, evaluated on day 21 after the treatment, criteria of Table 72
Experimental: (§2) Test for Determining Herbicidal Activity by Paddy Field Soil Treatment A 100 cm^2 wide plastic pot was filled with a paddy field soil and, after watering and shuffling, seeds of each of Echinochloa oryzicola, Monochoria vaginalis, and Scirpus juncoides Rocxb. were sowed and watered to a depth of 3 cm. On the next day, the wettable powder obtained in view of Formulation example 1 was diluted with water and applied on water surface. The application amount was 1000 g of effective component per hectare. After that, the plants were cultivated in a greenhouse, and on day 21 after the treatment, evaluation was made by the criteria of Table 72 for determining the herbicidal effects. [table]

[4] = test system: Indian millet; test: Herbicidal activity by field soil treatment (Test example 2); settings: 1000 g effective component per hectare, day 21 after the treatment
Experimental: (§3) [table] Test for Determining Herbicidal Activity by Field Soil Treatment A 80 cm^2 wide plastic pot was filled with a field soil and seeds of each of Echinochloa crus-galli, foxtail, Indian millet, and A. retroflexus were sowed and then covered with soil. The wettable powder produced with reference to the Formulation example 1 was diluted water, and applied on the soil surface by using a small sprayer in an amount of 1000 liters per hectare so that the effective component is 1000 g per hectare. After that, the plants were cultivated in a greenhouse, and on day 21 after the treatment, evaluation was made by the criteria described in Table 72 for determining the herbicidal effects.

[5] = test system: A. retroflexus; test: as above; settings: 1000 g effective component per hectare, day 21 after the treatment
Experimental: as §3

[6] = test system: Echinochloa crus-galli; test: Herbicidal activity by field foliage treatment (Test example 3); settings: 1000 g effective component per hectare, day 14 after the treatment
Experimental: as §1, with “Test example 3” for “[table]”

[7] = test system: Scirpus juncoides Rocxb.; test: Herbicidal activity by paddy field soil treatment (Test Example 1); settings: applied on water surface, 1000 g of effective component per hectare, day 21 after the treatment
Experimental: as §2

[8] = test system: Echinochloa oryzicola; test: as above; settings: 1000 g of effective component per hectare, evaluated on day 21 after the treatment, criteria of Table 72
Experimental: as §2

[9] = test system: Echinochloa crus-galli; test: Herbicidal activity by field soil treatment (Test example 2); settings: 1000 g effective component per hectare, day 21 after the treatment
Experimental: as §3

CCCCn1c(=O)c(C(=O)C2=C(O)CCCC2=O)nn(-c2ccccn2)c1=O [I-306]
herbicidal effect index, Abutilon theophrasti [1]: 9 | herbicidal effect index, Amaranthus retroflexus [2]: 7 | Herbicidal effects index number, Monochoria vaginalis [3]: 9 | herbicidal effect index, Abutilon theophrasti [4]: 7 | herbicidal effect index, Amaranthus retroflexus [5]: 10

Cc1cc(C)nc(-n2c(=O)c(C(=O)O)nn(C)c2=O)n1 [V-360]
herbicidal effect index, Abutilon theophrasti [1]: 7 | herbicidal effect index, Amaranthus retroflexus [2]: 10 | herbicidal effect index, Echinochloa crus-galli [6]: 8 | Herbicidal effects index number, Monochoria vaginalis [3]: 10 | herbicidal effect index, S. juncoides Rocxb. [7]: 10

Cc1cc(-n2c(=O)c(C(=O)C3=C(O)CCCC3=O)nn(C)c2=O)no1 [I-189]
herbicidal effect index, Abutilon theophrasti [1]: 9 | herbicidal effect index, Amaranthus retroflexus [2]: 10 | Herbicidal effects index number, Monochoria vaginalis [3]: 10 | herbicidal effect index, S. juncoides Rocxb. [7]: 10 | herbicidal effect index, Abutilon theophrasti [4]: 10 | herbicidal effect index, Amaranthus retroflexus [5]: 10

CCCCCn1nc(C(=O)C2=C(O)CCCC2=O)c(=O)n(-c2ccccc2)c1=O [I-308]
herbicidal effect index, Abutilon theophrasti [1]: 8 | Herbicidal effects index number, Monochoria vaginalis [3]: 8 | herbicidal effect index, Amaranthus retroflexus [5]: 10

Cc1ccc(-n2c(=O)c(C(=O)C3=C(O)CCCC3=O)nn(C)c2=O)c(F)c1 [I-108]
herbicidal effect index, Abutilon theophrasti [1]: 9 | herbicidal effect index, Amaranthus retroflexus [2]: 10 | Herbicidal effects index number, Monochoria vaginalis [3]: 10 | herbicidal effect index, S. juncoides Rocxb. [7]: 10 | Herbicidal effects index number, Echinochloa oryzicola [8]: 10 | herbicidal effect index, Abutilon theophrasti [4]: 8 | herbicidal effect index, Amaranthus retroflexus [5]: 10

COc1ccc(-n2c(=O)c(C(=O)C3=C(O)CCCC3=O)nn(C)c2=O)c(OC)c1 [I-96]
herbicidal effect index, Abutilon theophrasti [1]: 9 | herbicidal effect index, Amaranthus retroflexus [2]: 10 | herbicidal effect index, Echinochloa crus-galli [6]: 7 | Herbicidal effects index number, Monochoria vaginalis [3]: 10 | herbicidal effect index, S. juncoides Rocxb. [7]: 10 | Herbicidal effects index number, Echinochloa oryzicola [8]: 8 | herbicidal effect index, Abutilon theophrasti [4]: 10 | herbicidal effect index, Amaranthus retroflexus [5]: 10

Cc1ccc(-n2c(=O)c(C(=O)O)nn(C)c2=O)nc1 [V-361]
herbicidal effect index, Abutilon theophrasti [1]: 9 | herbicidal effect index, Amaranthus retroflexus [2]: 10 | Herbicidal effects index number, Monochoria vaginalis [3]: 10 | herbicidal effect index, S. juncoides Rocxb. [7]: 10 | herbicidal effect index, Abutilon theophrasti [4]: 10 | herbicidal effect index, Amaranthus retroflexus [5]: 8

Cn1nc(C(F)(F)F)cc1-n1c(=O)c(C(=O)C2=C(O)CCCC2=O)nn(C)c1=O [I-272]
herbicidal effect index, Abutilon theophrasti [1]: 9 | herbicidal effect index, Amaranthus retroflexus [2]: 10 | herbicidal effect index, Echinochloa crus-galli [6]: 6 | Herbicidal effects index number, Monochoria vaginalis [3]: 8 | herbicidal effect index, S. juncoides Rocxb. [7]: 8 | Herbicidal effects index number, Echinochloa oryzicola [8]: 7 | herbicidal effect index, Amaranthus retroflexus [5]: 8

CCc1ccc(-n2c(=O)c(C(=O)C3=C(O)CCCC3=O)nn(C)c2=O)nc1 [I-462]
herbicidal effect index, Abutilon theophrasti [1]: 10 | herbicidal effect index, Amaranthus retroflexus [2]: 10 | Herbicidal effects index number, Monochoria vaginalis [3]: 10 | herbicidal effect index, S. juncoides Rocxb. [7]: 10 | herbicidal effect index, Abutilon theophrasti [4]: 10 | herbicidal effect index, Amaranthus retroflexus [5]: 9

COc1cc(OC)cc(-n2c(=O)c(C(=O)C3=C(O)CCCC3=O)nn(C)c2=O)c1 [Compound I-94]
herbicidal effect index, Abutilon theophrasti [1]: 10 | herbicidal effect index, Amaranthus retroflexus [2]: 10 | Herbicidal effects index number, Monochoria vaginalis [3]: 10 | herbicidal effect index, S. juncoides Rocxb. [7]: 10 | herbicidal effect index, Abutilon theophrasti [4]: 10 | herbicidal effect index, Amaranthus retroflexus [5]: 10

Cn1nc(C(=O)C2=C(O)CCCC2=O)c(=O)n(CS(C)(=O)=O)c1=O [Compound I-47]
herbicidal effect index, Abutilon theophrasti [1]: 9 | herbicidal effect index, Amaranthus retroflexus [2]: 10 | Herbicidal effects index number, Monochoria vaginalis [3]: 10 | herbicidal effect index, S. juncoides Rocxb. [7]: 10 | herbicidal effect index, Amaranthus retroflexus [5]: 10

Cc1ccc(-n2c(=O)c(C(=O)C3=C(O)CCCC3=O)nn(C)c2=S)nc1 [I-291]
herbicidal effect index, Abutilon theophrasti [1]: 9 | herbicidal effect index, Amaranthus retroflexus [2]: 10 | Herbicidal effects index number, Monochoria vaginalis [3]: 10 | herbicidal effect index, S. juncoides Rocxb. [7]: 10 | herbicidal effect index, Abutilon theophrasti [4]: 10 | herbicidal effect index, Amaranthus retroflexus [5]: 8

Cc1ccc(-n2c(=O)c(C(=O)C3=C(O)CCCC3=O)nn(C)c2=O)cc1 [I-59]
herbicidal effect index, Abutilon theophrasti [1]: 10 | herbicidal effect index, Amaranthus retroflexus [2]: 10 | herbicidal effect index, Echinochloa crus-galli [6]: 7 | Herbicidal effects index number, Monochoria vaginalis [3]: 10 | herbicidal effect index, S. juncoides Rocxb. [7]: 10 | Herbicidal effects index number, Echinochloa oryzicola [8]: 10 | herbicidal effect index, Abutilon theophrasti [4]: 10 | herbicidal effect index, Amaranthus retroflexus [5]: 10

Cn1nc(C(=O)C2=C(O)CCCC2=O)c(=O)n(N2CCSCC2)c1=O [I-203]
herbicidal effect index, Abutilon theophrasti [1]: 9 | herbicidal effect index, Amaranthus retroflexus [2]: 10 | herbicidal effect index, Echinochloa crus-galli [6]: 6 | Herbicidal effects index number, Monochoria vaginalis [3]: 10 | herbicidal effect index, S. juncoides Rocxb. [7]: 10 | Herbicidal effects index number, Echinochloa oryzicola [8]: 10 | herbicidal effect index, Amaranthus retroflexus [5]: 7 | herbicidal effect index, Echinochloa crus-galli [9]: 9

Cn1nc(C(=O)C2=C(O)CCCC2=O)c(=O)n(-c2ccc3c(c2)OCO3)c1=O [I-170]
herbicidal effect index, Abutilon theophrasti [1]: 10 | herbicidal effect index, Amaranthus retroflexus [2]: 10 | herbicidal effect index, Echinochloa crus-galli [6]: 10 | Herbicidal effects index number, Monochoria vaginalis [3]: 10 | herbicidal effect index, S. juncoides Rocxb. [7]: 10 | Herbicidal effects index number, Echinochloa oryzicola [8]: 10 | herbicidal effect index, Abutilon theophrasti [4]: 10 | herbicidal effect index, Amaranthus retroflexus [5]: 10

Cc1cc(C)nc(-n2c(=O)c(C(=O)C3=C(O)CCCC3=O)nn(C)c2=O)n1 [I-467]
herbicidal effect index, Abutilon theophrasti [1]: 7 | herbicidal effect index, Amaranthus retroflexus [2]: 10 | herbicidal effect index, Echinochloa crus-galli [6]: 8 | Herbicidal effects index number, Monochoria vaginalis [3]: 10 | herbicidal effect index, S. juncoides Rocxb. [7]: 10

COc1cccc(-n2c(=O)c(C(=O)O)nn(C)c2=O)c1 [V-61]
herbicidal effect index, Abutilon theophrasti [4]: 8

COc1ccc(-n2c(=O)c(C(=O)C3=C(O)CCCC3=O)nn(C)c2=O)nc1 [I-290]
herbicidal effect index, Abutilon theophrasti [1]: 9 | herbicidal effect index, Amaranthus retroflexus [2]: 10 | Herbicidal effects index number, Monochoria vaginalis [3]: 10 | herbicidal effect index, S. juncoides Rocxb. [7]: 10 | herbicidal effect index, Abutilon theophrasti [4]: 10 | herbicidal effect index, Amaranthus retroflexus [5]: 8

C=Cc1ccc(-n2c(=O)c(C(=O)C3=C(O)CCCC3=O)nn(C)c2=O)nc1 [I-293]
herbicidal effect index, Abutilon theophrasti [1]: 8 | herbicidal effect index, Amaranthus retroflexus [2]: 10 | Herbicidal effects index number, Monochoria vaginalis [3]: 10 | herbicidal effect index, S. juncoides Rocxb. [7]: 10 | herbicidal effect index, Abutilon theophrasti [4]: 10

CSc1c(Cl)cc(-n2c(=O)c(C(=O)C3=C(O)CCCC3=O)nn(C)c2=O)cc1Cl [I-300]
herbicidal effect index, Abutilon theophrasti [1]: 8 | herbicidal effect index, Amaranthus retroflexus [2]: 10 | herbicidal effect index, Echinochloa crus-galli [6]: 9 | Herbicidal effects index number, Monochoria vaginalis [3]: 10 | herbicidal effect index, S. juncoides Rocxb. [7]: 10 | Herbicidal effects index number, Echinochloa oryzicola [8]: 10 | herbicidal effect index, Abutilon theophrasti [4]: 10 | herbicidal effect index, Amaranthus retroflexus [5]: 10

CCCCCCn1c(=O)c(C(=O)C2=C(O)CCCC2=O)nn(C)c1=O [I-9]
herbicidal effect index, Abutilon theophrasti [1]: 10 | herbicidal effect index, Amaranthus retroflexus [2]: 10 | herbicidal effect index, Echinochloa crus-galli [6]: 10 | Herbicidal effects index number, Monochoria vaginalis [3]: 8 | herbicidal effect index, S. juncoides Rocxb. [7]: 8 | Herbicidal effects index number, Echinochloa oryzicola [8]: 8 | herbicidal effect index, Amaranthus retroflexus [5]: 10 | herbicidal effect index, Echinochloa crus-galli [9]: 7

CCOc1ccc(-n2c(=O)c(C(=O)C3=C(O)CCCC3=O)nn(C)c2=O)cc1 [I-268]
herbicidal effect index, Abutilon theophrasti [1]: 9 | herbicidal effect index, Amaranthus retroflexus [2]: 10 | herbicidal effect index, Echinochloa crus-galli [6]: 7 | Herbicidal effects index number, Monochoria vaginalis [3]: 10 | herbicidal effect index, S. juncoides Rocxb. [7]: 10 | Herbicidal effects index number, Echinochloa oryzicola [8]: 10 | herbicidal effect index, Abutilon theophrasti [4]: 8 | herbicidal effect index, Amaranthus retroflexus [5]: 10
